From BindingDB's records for patent US8507533 (Pfizer, 2013)
“And” between values parts separate entries of the source, which are not always exact repeats. Identical values can stand only once.

Biological target: Glucagon receptor (Homo sapiens, UniProt P47871)
Experiment: Glucagon SPA Assay
Conditions: pH 7.4
From the text: The Glucagon SPA assay is used to determine the ability of test compounds to block the binding of glucagon-cex to the glucagon receptors.

Glucagon receptor, sequence (P47871 whole entry): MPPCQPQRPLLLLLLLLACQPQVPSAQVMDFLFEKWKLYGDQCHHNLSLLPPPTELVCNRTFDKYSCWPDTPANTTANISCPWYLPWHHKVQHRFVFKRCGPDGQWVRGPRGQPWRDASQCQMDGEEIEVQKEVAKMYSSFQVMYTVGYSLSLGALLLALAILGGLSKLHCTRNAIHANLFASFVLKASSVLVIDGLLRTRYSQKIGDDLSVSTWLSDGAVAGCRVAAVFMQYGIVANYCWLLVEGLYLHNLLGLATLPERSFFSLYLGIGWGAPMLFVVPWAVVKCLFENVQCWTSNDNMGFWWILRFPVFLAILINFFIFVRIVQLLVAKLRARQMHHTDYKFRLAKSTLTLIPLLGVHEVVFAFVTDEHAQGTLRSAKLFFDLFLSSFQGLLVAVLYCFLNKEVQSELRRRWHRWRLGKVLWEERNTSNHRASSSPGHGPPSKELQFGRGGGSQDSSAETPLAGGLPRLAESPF

Row | Ki | Compound
1 | 183 nM and 297 nM | Cc1cc(-n2cc(C(F)(F)F)cn2)ccc1C(Nc1ccc(C(=O)NCCC(=O)O)cn1)C1CCCCC1 (single isomer, unassigned) [US8507533, 337]
2 | 58 nM | CCCC(Oc1ccc(-n2cc(-c3ccccc3)cn2)nc1)c1ccc(C(=O)NCCC(=O)O)cc1 (configuration not stated) [US8507533, 133]
